Literature values in patent publication US20120183587A1, “FLAVONOL COMPOSITIONS” (priority 2011, published 2012).

Conditions: Guglen et al., Eur. J. Clin. Pharmacol. 1975

O=c1c(O)c(-c2ccc(O)c(O)c2)oc2cc(O)cc(O)c12 [quercetin, 3,3′,4′,5,7-pentahydroxy-2-phenylchromen-4-one]
extent of absorption from an oral dose: about 1%
